Test [1] concerns retinal cell culture model. Briefly: retinal cell culture model, transepithelial resistance (TER). The format is cell-based.
For test [2], the system named is vascular endothelial growth factor (VEGF). Description: retinal cell culture model, vascular endothelial growth factor (VEGF). Format: cell-based.
For test [3], the system named is pups undergoing the OIR model. Briefly: OIR model in pups, oral gavage: pre-retinal neovascularization, vaso-obliteration, vascular density. Format: in vivo, mouse. Particulars: for reduction in pre-retinal neovascularization relative to vehicle / area of vaso-obliteration: OIR pups; for reduction in pre-retinal neovascularization relative to vehicle: gavaged twice daily P12-P17, H&E cross-sections on P17; for area of vaso-obliteration: gavaged twice daily P12-P17, assessed in P17 pups, vehicle 30.4±7.9%. An excerpt: Retinopathy of prematurity (ROP) is the major cause of blindness in children. Supplementation with arginine or glutamine results in improved clinical outcomes in premature infants. In this study the protective effect of oral administration of Arg-Gln alone and in combination with DHA was examined in pups undergoing the OIR model. METHODS: Nursing dams and pups were returned to normal room air on P12 (postnatal day 12) and gavaged twice daily with: Arg-Gln, DHA, Arg-Gln+DHA or vehicle (P12-P17). Normoxic pups were treated in an identical manner. On P17 the pups were perfused with FITC-labeled dextran. One eye was embedded in paraffin, cross-sectioned and H&E (hematoxylin and eosin) stained for analysis of pre-retinal neovascularization. The retina from the second eye was removed and underwent microscopic analysis for the vessel regrowth, which was evaluated by vessel density.

Residues, ends and D or L forms follow the SMILES beside them.

In the case of `N=C(N)NCCC[C@H](N)C(=O)N[C@@H](CCC(N)=O)C(=O)O` [Arg-Gln dipeptide, arginyl-glutamine] (H-Arg-Gln-OH), the “transepithelial resistance (TER)” value in test [1] is on record as “increased”. Moreover, in test [2], the “vascular endothelial growth factor (VEGF)” value is given as “decreased”. In test [3] (OIR mouse model, conclusions), the “pre-retinal neovascularization (result in words)” value is given as “dramatically inhibited” and the “vaso-obliteration (result in words)” value is given as “reduced”. Further, in test [3] (OIR pups following hyperoxia exposure, P17, compared to vehicle treated and normoxic pups), the “intra-retinal vascular density, a measure of vascular regrowth” value was “restored”. In addition, in test [3], the “reduction in pre-retinal neovascularization relative to vehicle” value is reported as 35±1% and the area of vaso-obliteration is listed as 4.8±1.0%.

In the case of `CC/C=C\C/C=C\C/C=C\C/C=C\C/C=C\C/C=C\CCC(=O)O` [DHA, decosahexaenoic acid], in test [3], the “reduction in pre-retinal neovascularization relative to vehicle” value is 45±2% and the area of vaso-obliteration worked out at 3.6±1.3%.

The record behind these values is US20090192226A1, “Materials and Methods for Treatment of Pathological Ocular Vascular Proliferation” (priority 2007, published 2009).
